Reference: US7803930B2, “Antisense modulation of apolipoprotein B-expression” (Isis Pharmaceuticals, Inc., priority 2002, dated 2010)
In the oligonucleotide strings, read from the 5' end, every base follows the letter of its sugar. An asterisk marks phosphorothioate; unmarked linkages are phosphodiester. Other units and linkages are bracketed, terminal groups are in braces. A string of capitals states the bases alone. e = 2'-O-(2-methoxyethyl) (MOE); [5mC] = 5-methylcytosine; d = 2'-deoxy (DNA)

Test system: human apolipoprotein B mRNA
Assay: Inhibition of human apolipoprotein B mRNA levels in HepG2 cells, quantitative real-time PCR
Type: cell-based
Details: for % INHIB (inhibition of human apolipoprotein B mRNA levels): HepG2 cells treated with 150 nM of compound, quantitative real-time PCR; for % INHIB / % INHIB 50 nm / % INHIB 150 nm: HepG2 cells
Outline: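 Apolipoprotein B transcript was quantified by one-step TaqMan RT-PCR, normalized to GAPDH or RiboGreen RNA, and expressed as percent inhibition against an untreated-sample standard curve. HepG2 cells were harvested 16-24 h after oligonucleotide exposure, which was delivered with 3.75 μg/mL Lipofectin over 4-7 h at 80% confluency.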

[1] = human apolipoprotein B mRNA, oligonucleotides targeting genomic sequence SEQ ID NO 334, averages from two experiments
[2] = Table 1, 150 nM, averages from two experiments

301217 (antisense eA*eG*eA*e[5mC]*eT*d[5mC]*d[5mC]*dA*dT*dT*dT*dA*dT*dT*dT*eG*eT*eT*e[5mC]*e[5mC]) [compound 301217]
% INHIB (inhibition of human apolipoprotein B mRNA levels) (averages from two experiments): 81%

301153 (eA*eG*eT*e[5mC]*eA*dG*dA*dA*dA*dA*d[5mC]*dA*dA*d[5mC]*d[5mC]*eT*eA*eT*eT*e[5mC]; antisense) [compound 301153]
% INHIB [1]: 11%

301214 (antisense eT*eT*eT*e[5mC]*eT*d[5mC]*dT*dT*dT*dA*dT*d[5mC]*dA*d[5mC]*dA*eT*eG*e[5mC]*e[5mC]*e[5mC]) [compound 301214]
% INHIB [1]: 29%

301067 (eT*e[5mC]*eT*eG*eA*dT*d[5mC]*dA*d[5mC]*d[5mC]*dA*dT*dA*d[5mC]*dA*eT*eT*eA*e[5mC]*eA; antisense) [compound 301067]
% INHIB [1]: 45%

301095 (antisense e[5mC]*eA*eA*eG*eG*dA*dA*dG*d[5mC]*dA*d[5mC]*dA*d[5mC]*d[5mC]*dA*eT*eG*eT*e[5mC]*eA) [compound 301095]
% INHIB [1]: 38%

147818 (antisense eA*eG*eT*eG*eA*dT*dG*dG*dA*dA*dG*d[5mC]*dT*dG*d[5mC]*eG*eA*eT*eA*e[5mC]) [compound 147818]
% INHIB [2]: 30%

301215 (antisense eT*eA*eT*eA*eG*dT*dA*d[5mC]*dA*d[5mC]*dT*dA*dA*dA*dA*e[5mC]*eT*eT*e[5mC]*eA) [compound 301215]
% INHIB [1]: 1%

308656 (antisense GCCTCAGTCTGCTTCGCACC; 8-10-2 2'-MOE gapmer, phosphorothioate, chemistry not fully specified) [compound 308656]
% INHIB 50 nm (50 nm oligonucleotide, variable deoxy gap position): 37% | % INHIB 150 nm (150 nm oligonucleotide, variable deoxy gap position): 97%

301064 (e[5mC]*eA*eG*eT*eG*d[5mC]*d[5mC]*dT*d[5mC]*dT*dG*dG*dG*dA*d[5mC]*e[5mC]*e[5mC]*e[5mC]*eA*e[5mC]; antisense) [compound 301064]
% INHIB [1]: 60%

281638 (antisense eT*e[5mC]*e[5mC]*e[5mC]*eT*d[5mC]*dA*dT*d[5mC]*dT*dG*dA*dG*dA*dA*eT*e[5mC]*eT*eG*eG) [compound 281638]
% INHIB (inhibition of human apolipoprotein B mRNA levels) (averages from two experiments): 66%

301039 (eT*eG*eG*eT*eG*d[5mC]*d[5mC]*dA*dG*d[5mC]*dT*dT*dT*dG*dG*eT*eG*e[5mC]*eA*eG; antisense) [compound 301039]
% INHIB (inhibition of human apolipoprotein B mRNA levels) (averages from two experiments): 73%

308622 (eG*e[5mC]*e[5mC]*eT*eT*d[5mC]*dT*dG*d[5mC]*dT*dT*dG*dA*dG*dT*eT*eA*e[5mC]*eA*eA; antisense) [compound 308622]
% INHIB 50 nm (Table 13 gene walk, 50 nM, averages from two experiments): 25% | % INHIB 150 nm (Table 13 gene walk, 150 nM, averages from two experiments): 87%

147828 (antisense eA*e[5mC]*eG*eT*eT*dA*dT*d[5mC]*d[5mC]*dT*dT*dG*dA*dG*dT*e[5mC]*e[5mC]*e[5mC]*eT*eG) [compound 147828]
% INHIB [2]: 12%

270997 (antisense eG*e[5mC]*eA*e[5mC]*eT*dG*dA*dG*dG*d[5mC]*dT*dG*dT*d[5mC]*d[5mC]*eA*e[5mC]*eA*e[5mC]*eT) [compound 270997]
% INHIB (inhibition of human apolipoprotein B mRNA levels) (averages from two experiments): 24%

147831 (antisense e[5mC]*eT*eG*e[5mC]*e[5mC]*dT*dA*d[5mC]*dT*dG*d[5mC]*dA*dA*dG*dG*e[5mC]*eT*eG*eG*e[5mC]) [compound 147831]
% INHIB [2]: 0%

271034 (e[5mC]*eA*e[5mC]*eT*eG*dA*dA*dG*dA*d[5mC]*d[5mC]*dG*dT*dG*dT*eG*e[5mC]*eT*e[5mC]*eT; antisense) [compound 271034]
% INHIB (inhibition of human apolipoprotein B mRNA levels) (averages from two experiments): 35%

301167 (antisense e[5mC]*e[5mC]*eA*eA*eG*d[5mC]*d[5mC]*dT*d[5mC]*dT*dT*dT*dA*d[5mC]*dT*eG*eG*eG*e[5mC]*eT) [compound 301167]
% INHIB [1]: 29%

301174 (antisense eG*eT*eG*e[5mC]*e[5mC]*dA*dT*dG*d[5mC]*dT*dA*dG*dG*dT*dG*eG*e[5mC]*e[5mC]*eA*eT) [compound 301174]
% INHIB [1]: 37%
